According to the METLIN SMRT retention time set (Domingo-Almenara et al. 2019):

Test: gradient 5% acetonitrile 3 min, to 50% in 2 min, to 85% in 15 min, held 3 min, 100 µL/min
Conditions: column: Zorbax Extend-C18 2.1 x 50 mm; eluents: water / acetonitrile, 0.1% formic acid
Method in brief: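 Pure standards were analyzed in mixtures of ~100 molecules using HPLC coupled to a quadrupole time-of-flight mass spectrometer, in both positive and negative ionization mode. Separation used a Zorbax Extend-C18 column (2.1 × 50 mm, 1.8 μm) at 100 μL/min, with water and acetonitrile each containing 0.1% formic acid. Dead and dwell volumes were 40 μL and 900 μL, and data were collected over 3 months. Retention time was read from computationally picked adduct peaks, each inspected manually.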

Row | RP-LC retention time [s] | Compound
1 | 984 | C=CCNc1nc(-c2ccc(Cl)cc2)cs1
2 | 873 | COc1cccc(CNC(=O)Cn2c(-c3ccc(F)cc3)ncc(C#N)c2=O)c1
3 | 674 | CN(C)C(=O)c1n[nH]c2c1CN(C(=O)c1ccc(C(F)(F)F)cc1)CC2
4 | 732 | O=C(c1ccc(-n2cccn2)nc1)N1CCCCC1
5 | 783 | Cc1cc2nn(CC(=O)Nc3ccc4c(c3)OCCO4)c(=O)n2c(-c2ccc(F)cc2)n1
6 | 831 | c1ccc(C(NCc2cccnc2)(c2ccccc2)c2ccccc2)cc1
7 | 871 | CCOCCCNC(=O)C(C)Oc1ccc(=O)n(-c2ccc(C)c(C)c2)n1 (centres undefined)
8 | 883 | Cn1c(=O)sc2cc(S(=O)(=O)N3CCC(C(=O)NCc4ccccc4Cl)CC3)ccc21
9 | 729 | Cc1c(NS(=O)(=O)CCOc2ccccc2)c(=O)n(-c2ccccc2)n1C
10 | 872 | COc1ccc(-c2cnn(CC(=O)Nc3cc(F)cc(F)c3)c(=O)n2)cc1
11 | 772 | CC(C)CC(=O)Nc1ccc(-n2cnc(C(=O)NC3CCCC3)c2)nc1
12 | 622 | Cn1c(=O)c(C(=O)N2CCN(c3ccccn3)CC2)nn(-c2ccc(F)cc2)c1=O
13 | 631 | Cc1ccc(-c2ccc(N3CCCC(C(=O)NC4CC4)C3)nn2)cc1 (centres undefined)
14 | 838 | Cc1ccc(NC(=O)C2CCCN(c3ncnc4c3nc3n4CCCCC3)C2)cc1 (centres undefined)
15 | 981 | Cc1ccc(NC(=O)c2cn(C)nc2S(=O)(=O)N2CCSCC2)cc1F
16 | 754 | CCc1ccc2nc(Nc3nc(C)c4c(n3)CCCC4)nc(C)c2c1
17 | 1160 | CCCN1C(=O)COc2ccc(-c3noc(-c4cccc(OC)c4OC)n3)cc21
18 | 872 | Cc1nn(CC(=O)N2CCCCCC2)c(=O)c2nc(-c3ccccc3)sc12
19 | 1110 | Cc1ccc(-c2nnc(Cc3nc(-c4cccc(C)c4)no3)o2)cc1
20 | 652 | O=S(=O)(c1cccs1)N1CCN(c2cnn3cnnc3c2)CC1
21 | 838 | CCN(C(=O)C1CCCN(c2ncnc3c2nc2n3CCCCC2)C1)c1ccccc1 (centres undefined)
22 | 1130 | COc1ccc(Br)cc1CNC(=O)c1sc2ncccc2c1-n1cccc1
23 | 866 | COc1ccc(NC(=O)N2CCCC(C)(C(=O)NCc3ccccc3C)C2)c(OC)c1 (centres undefined)

Row | RP-LC retention time [s] | Compound
24 | 700 | CC1(C)C(=O)Nc2ccc(S(=O)(=O)N3CCC(c4noc(-c5ccncc5)n4)C3)cc21 (centres undefined)
25 | 974 | C[C@@H](C(=O)O)c1ccc(-c2ccccc2)c(F)c1
26 | 1060 | O=S(=O)(c1ccc2c(c1)CCC2)N1CCCn2nc(-c3cccs3)cc2C1
27 | 550 | COc1cn(CC(=O)NCc2ccc(F)cc2)c(CN2CCC(C)CC2)cc1=O
28 | 901 | Cc1cc2nc(C(=O)Nc3cccc(C#N)c3)cc(C)n2n1
29 | 911 | Cc1ccccc1-c1nnc(COc2ccc(NC(=O)c3ccsc3)cc2)o1
30 | 628 | COc1cc(C2CC(=O)c3cnc(N4CCN(C)CC4)nc3C2)cc(OC)c1OC (centres undefined)
31 | 821 | COc1ccc(CCc2nc3nccc(-c4ccccc4)n3n2)cc1OC
32 | 1090 | Cc1noc(-c2nc(-c3ccc(Cl)c(F)c3)no2)n1
33 | 819 | CCNC(=O)c1nc(C(=O)NCc2ccc(F)c(Cl)c2)cs1
34 | 666 | O=C(Cn1nc2nc(N3CCOCC3)ccn2c1=O)Nc1ccc(F)c(F)c1
35 | 1040 | Cc1cc(OCCCS(C)(=O)=O)cc(C)c1-c1cccc(COc2ccc3c(c2)OC[C@H]3CC(=O)O)c1
36 | 631 | CS(=O)(=O)N1CCC(C(=O)Nc2ccc3c(c2)N(C(=O)C2CCCO2)CC3)CC1 (centres undefined)
37 | 733 | CCCc1noc(-c2cccnc2N2CCCN(Cc3cc(F)cc(F)c3)CC2)n1
38 | 842 | O=C(NCc1ccc(F)cc1)C1CCN(C(=O)c2ncn3c2COC(c2ccc(Cl)cc2)C3)CC1 (centres undefined)
39 | 710 | Cc1ccc(NC(=O)Cn2cnc3c(c2=O)CCCC3)cc1
40 | 616 | CC(=O)c1cccc(NC(=O)COc2cc(C)nc(N3CCCC3)n2)c1
41 | 860 | Cc1ccc(Cl)cc1NC(=O)Cn1ncc2c(c1=O)N(CC1CC1)C(=O)CS2
42 | 912 | CC(=O)c1cccc(NC(=O)Cn2c(-c3ccccc3)nc(C)cc2=O)c1
43 | 581 | COc1ccc(-c2cn3c(CC(=O)Nc4cccnc4)csc3n2)cc1OC
44 | 868 | Cc1ccc(N2CC(c3noc(-c4ccoc4)n3)CC2=O)cc1 (centres undefined)
45 | 1330 | CCN1C(=O)COc2ccc(-c3noc(-c4cc(C)cc(C)c4)n3)cc21
46 | 742 | COc1cc(OC)cc(C(=O)N2CCC3(CC2)NC(=O)c2ccc(Cl)cc2N3)c1

Row | RP-LC retention time [s] | Compound
47 | 1250 | C=CCN(CC=C)C(=O)C1CCN(C(=O)c2cccc(F)c2)CC1
48 | 1230 | CCOc1ccc(-n2c(N(CC)CC)nc3cc(C(=O)OC)ccc3c2=O)cc1
49 | 775 | Cc1ccccc1S(=O)(=O)N1CCN(c2nc3ccncc3n(CC(C)C)c2=O)CC1
50 | 972 | COc1ccc(Cl)cc1NS(=O)(=O)c1cn(C(C)C)c2ncccc12
51 | 665 | O=C(N1CC(Oc2ccccc2-c2nc(C3CC3)no2)C1)C1(c2ccccc2)CC1
52 | 881 | Cc1cccc(NS(=O)(=O)c2ccc(-c3c(C)noc3C)cc2)c1
53 | 883 | Cc1cccc(CNC(=O)Cn2c(C)cc(-c3nnc(C4CCC4)o3)c2C)c1
54 | 722 | CC(=O)c1ccc(NC(=O)c2nc3nc(C)cc(C(F)F)n3n2)cc1
55 | 1080 | CCc1cccc(NC(=O)c2cn(CC)nc2S(=O)(=O)N2CCSCC2)c1
56 | 1110 | O=S(=O)(c1ccccc1Br)N1CCCC1c1nc(-c2ccc(F)cc2)no1 (centres undefined)
57 | 810 | Cc1cc(NC(=O)CSc2nc3ccccc3s2)no1
58 | 676 | CCc1noc(NC(C)=O)c1-c1ccc(OC)c(S(=O)(=O)N2CCOCC2)c1
59 | 1380 | CCOc1ccc(OCC)c(NC(=O)C2CCN(c3nccnc3Sc3ccc(C)cc3)CC2)c1
60 | 750 | Cc1ccc(S(=O)(=O)N2CCC3(CC2)NCCN=C3NCc2cccc(F)c2)c(C)c1
61 | 896 | Cc1csc(-c2ccc(N3CCN(C(=O)Cc4cccc(Cl)c4)CC3)nc2)n1
62 | 593 | COCc1nc(CCNC(=O)C2CCCO2)no1 (centres undefined)
63 | 941 | O=C(Cn1cncc(-c2nc(-c3cccs3)cs2)c1=O)Nc1cccc(Cl)c1
64 | 606 | O=C(c1cccc(C(F)(F)F)c1)N1CCN(c2cc(-n3ccnc3)ncn2)CC1
65 | 972 | O=C(Nc1cccc(Cl)c1F)c1cnc(-c2ccc(F)cc2)nc1-c1ccncc1
66 | 602 | COCC1CN(C2CCC2)CC12CCN(C(=O)c1cccs1)CC2 (centres undefined)
67 | 684 | CN(C)C(=O)c1ccc2c(c1)nnn2CCNC(=O)Nc1cccc(Cl)c1
68 | 1280 | O=S(=O)(NC1CCCCC1)c1ccccc1-c1nc(-c2ccccc2)no1
69 | 665 | Cc1oc2c(c1C(=O)Nc1ccc3c(c1)OCO3)C1=NC(C)(C)CN1C=N2

Row | RP-LC retention time [s] | Compound
70 | 761 | Cc1ccc(CNC(=O)N2CCC3(CC2)NC(=O)c2ccc(F)cc2N3C)cc1
71 | 867 | CC(C)NC(=O)CSc1nccnc1N1CCN(c2ccccc2)CC1
72 | 920 | CC(C)c1noc(-c2cccnc2N2CCCN(C(=O)NCc3ccccc3)CC2)n1
73 | 925 | COC(=O)c1ccccc1NC(=O)Cn1cnc2nc(-c3ccc(OC)cc3)ncc2c1=O
74 | 710 | CCc1ccc2ncc(C#N)c(N3CCC(C(=O)NCc4ccc(F)cc4)CC3)c2c1
75 | 617 | CCCc1nc2cccnc2n1C1CCN(C(=O)Nc2cccc(OC)c2)C1 (centres undefined)
76 | 1050 | Cc1ccc(N2CN(CC(=O)NCCC3=CCCCC3)S(=O)(=O)c3cccnc32)cc1
77 | 799 | Cc1cc(N2CCCC2)n2nc(-c3ccc(Cl)cc3)c(C)c2n1
78 | 543 | O=C(C1CCN(c2nnc3ccccn23)CC1)N1CCN(c2ccccn2)CC1
79 | 602 | CN1CCN(CCNC(=O)c2nn(-c3ccc(Cl)cc3)c3c(=O)n(C)cnc23)CC1
80 | 754 | COc1ccccc1NC(=O)N1CCC2(CC1)NC(=O)c1cccc(Cl)c1N2
81 | 937 | COc1ccc(-c2c(C(=O)Nc3cccc(C(C)=O)c3)nc3ccccn23)cc1
82 | 728 | CCN1C(=O)c2cccnc2Sc2cc(CNC(=O)Cc3ccsc3)ccc21
83 | 651 | Cc1ccc2c(Nc3ccc(Cl)c(F)c3)c(C(=O)N3CCSCC3)cnc2n1
84 | 775 | CC1(C)Cc2cccc(OCC(=O)Nc3cccc(-c4ccn[nH]4)c3)c2O1
85 | 1080 | CCOC(=O)c1cc(OCC)c2c(ccc3ccccc32)n1
86 | 800 | CCOc1ccccc1OCc1nn2c(-c3ccccn3)nnc2s1
87 | 695 | CCn1cnc(S(=O)(=O)N2CCC(C(=O)Nc3cccc(Cl)c3)CC2)c1
88 | 638 | Cc1ccc(-c2cc(C(=O)N3CCN(c4ccc(N5CCOCC5)nn4)CC3)[nH]n2)c(C)c1
89 | 799 | Cn1c(=O)n(C)c2cc(S(=O)(=O)c3ccccc3)c(NC(=O)Cc3cccc(F)c3)cc21
